Patent publication US7718663B2, “Quinazoline derivatives and medicaments” (Nippon Shinyaku Co., Ltd., priority 2002, dated 2010)
Where a name gives a salt, the structure may show the parent alone.

Legend:
[1] = biological target: T1, human nociceptin receptor (Homo sapiens, UniProt P41146); test: Nociceptin receptor binding assay ([3H]nociceptin); conditions: cell membrane of human nociceptin receptor-expressing cell, 0.08 nM [3H]nociceptin, 25° C. 60 minutes; read-out: Affinity for nociceptin receptors Ki value
T1 construct: expressed in transfected cells
T1 sequence (P41146 whole entry): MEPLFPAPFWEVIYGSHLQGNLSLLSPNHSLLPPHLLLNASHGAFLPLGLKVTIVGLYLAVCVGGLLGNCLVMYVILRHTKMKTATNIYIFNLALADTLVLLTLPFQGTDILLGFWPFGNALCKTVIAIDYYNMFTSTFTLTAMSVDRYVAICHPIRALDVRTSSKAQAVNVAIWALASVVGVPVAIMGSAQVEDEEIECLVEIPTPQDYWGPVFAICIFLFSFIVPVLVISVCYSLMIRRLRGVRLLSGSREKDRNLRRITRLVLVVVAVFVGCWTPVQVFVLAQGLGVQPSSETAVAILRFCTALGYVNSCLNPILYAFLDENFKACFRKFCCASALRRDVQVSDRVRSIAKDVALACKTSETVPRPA
Description: Nociceptin Receptor Binding Assay
A cell membrane suspension obtained from a human nociceptin receptor-expressing cell was prepared so that it contained 5 to 10 μg/mL of the membrane protein in a Tris buffer [50 mM Tris-HCl (pH7.8), 5 mM MgCl2, 1 mM EGTA [Ethylene Glycol Bis(β-aminoethylether)-N,N,N′,N′-tetraacetic Acid], 0.1% BSA (Bovine Serum Alubumin)]. To this, [^3H]nociceptin (diluted at the final concentration of 0.08 nM with the Tris buffer) and each test compound was added and the mixture was incubated at 25° C. for 60 minutes. Using a cell harvester and a washing solution [50 mM Tris-HCl (pH7.8), 4° C.], the membrane was recovered onto a GF/B filter which had been pretreated with 0.3% PEI (polyethylenimine), which was then washed further 3 times. The filter was transferred to a vial, to which a scintillator was added, and the radioactivity was measured using a liquid scintillation counter. Noted that a non-specific binding was regarded as a binding in the presence of 10 μM nociceptin, and a specific binding was obtained by subtracting the non-specific binding from the total binding. From a ratio of binding inhibition in the presence of the tested substance, an IC50 value was obtained, and was then used together with the Kd value for [^3H]nociceptin to calculate the Ki value for the tested substance.

rat μ opioid receptor = biological target: T2, rat μ opioid receptor (Rattus norvegicus, UniProt P33535); test: μ opioid receptor binding assay ([3H]diprenorphine); conditions: rat μ opioid receptor-expressing cell membrane, 0.5 nM [3H]diprenorphine, 25° C. 60 minutes; read-out: Affinity for μ receptors Ki value
T2 construct: expressed in transfected cells
T2 sequence (P33535 whole entry): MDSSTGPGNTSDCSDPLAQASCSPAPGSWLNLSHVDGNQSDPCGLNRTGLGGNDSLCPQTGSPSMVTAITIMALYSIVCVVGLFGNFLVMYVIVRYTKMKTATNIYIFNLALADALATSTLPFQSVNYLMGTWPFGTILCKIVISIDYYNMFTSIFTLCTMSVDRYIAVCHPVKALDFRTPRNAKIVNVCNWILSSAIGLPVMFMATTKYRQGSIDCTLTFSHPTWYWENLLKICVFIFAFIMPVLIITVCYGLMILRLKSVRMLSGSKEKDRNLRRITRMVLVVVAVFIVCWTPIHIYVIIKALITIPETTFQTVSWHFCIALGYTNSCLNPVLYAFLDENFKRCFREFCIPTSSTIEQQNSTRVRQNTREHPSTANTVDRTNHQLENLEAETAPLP
Description: μ Opioid Receptor Binding Assay
A rat μ opioid receptor-expressing cell membrane preparation was prepared so that it contained 8.5 μg/mL of the membrane protein in a Tris buffer [50 mM Tris-HCl (pH7.8), 5 mM MgCl2, 1 mM EGTA, 0.1% BSA]. To this, [^3H]diprenorphine (diluted at the final concentration of 0.5 nM with the Tris buffer) and each test compound was added and the mixture was incubated at 25° C. for 60 minutes. Using a cell harvester and a washing solution [50 mM Tris-HCl (pH7.8), 4° C.], the membrane was recovered onto a GF/B filter which had been pretreated with 0.3% PEI, which was then washed further 3 times. The filter was transferred to a vial, to which a scintillator was added, and the radioactivity was measured using a liquid scintillation counter. Noted that a non-specific binding was regarded as a binding in the presence of […], and a specific binding was obtained by subtracting the non-specific binding from the total binding. From a ratio of binding inhibition in the presence of the tested substance, an IC50 value was obtained, and was then used together with the Kd value for [^3H]diprenorphine to calculate the Ki value for the tested substance.

ICR male mice = test: Mouse eye-scratching behavior induced by serotonin; format: in vivo; conditions: 0.5% test compound, 10 μl dropped into eye five minutes before 1% serotonin; counted for 10 minutes
Description: Effect on Mouse Eye-scratching Behavior Induced by Serotonin
After dropping 10 μl of 1% serotonin hydrochloride (hereinafter referred to as serotonin) into right eye of ICR male mice (4 to 6 weeks old), the number of eye-scratcing behavior induced by dropping of serotonin was measured for 10 minutes.
As the test compound, inventive compounds of Example 1, Example 2, Example 3, Example 6, Example 12, Example 29, Example 52, Example 364, Example 381 and Example 383 were used. Five minutes before dropping serotonin, 10 μl of each test compound was dropped. Distilled water as a solvent of the test compound was dropped as a control group.

Ki [1] [nM] | Ki (rat μ opioid receptor) [nM] | Compound | Average number of scratching behavior (ICR male mice)
0.15 | 180 | Cc1ccc2nc(NC(=O)c3cc4ccccc4s3)nc(N[C@H]3CCCC[C@H]3NC(=N)N)c2c1.Cl.Cl [Example 1, N-{4-[((1S,2R)-2-{[amino(imino)methyl]amino}cyclohexyl)amino]-6-methylquinazolin-2-yl}-1-benzothiophene-2-carboxamide dihydrochloride] | 9.57
 |  | COc1ccc(NC(=O)c2nc(N[C@H]3CCCC[C@H]3NC(=N)N)c3cc(C)ccc3n2)cc1.Cl.Cl [Example 2, 4-[((1S,2R)-2-{[amino(imino)methyl]amino}cyclohexyl)amino]-N-(4-methoxyphenyl)-6-methylquinazoline-2-carboxamide dihydrochloride] | 7.25
0.14 | 260 | Cc1ccc2nc(NC(=O)c3cc4ccccc4o3)nc(N[C@H]3CCCC[C@H]3NC(=N)N)c2c1.Cl.Cl [Example 3, N-{4-[((1S,2R)-2-{[amino(imino)methyl]amino}cyclohexyl)amino]-6-methylquinazolin-2-yl}-1-benzofuran-2-carboxamide dihydrochloride] | 2.33
0.67 | 550 | COc1ccc(C(=O)Nc2nc(N[C@H]3CCCC[C@H]3NC(=N)N)c3cc(C)ccc3n2)c(OC)c1.Cl.Cl [Example 6, N-{4-[((1S,2R)-2-{[amino(imino)methyl]amino}cyclohexyl)amino]-6-methylquinazolin-2-yl}-2,4-dimethoxybenzamide dihydrochloride] | 2.38
0.65 | 570 | COc1ccc2cc(C(=O)Nc3nc(N[C@H]4CCCC[C@H]4NC(=N)N)c4cc(C)ccc4n3)ccc2c1 [Example 7, N-{4-[((1S,2R)-2-{[amino(imino)methyl]amino}cyclohexyl)amino]-6-methylquinazolin-2-yl}-6-methoxy-2-naphthamide dihydrochloride] | 
0.57 | 680 | COc1ccc(C(=O)Nc2nc(N[C@H]3CCCC[C@H]3NC(=N)N)c3cc(C)ccc3n2)cc1.Cl.Cl [Example 12, N-{4-[((1S,2R)-2-{[amino(imino)methyl]amino}cyclohexyl)amino]-6-methylquinazolin-2-yl}-4-methoxybenzamide dihydrochloride] | 8.17
 |  | Cc1ccc2nc(C(=O)NCC(C)(C)C)nc(N[C@H]3CCCC[C@H]3NC(=N)N)c2c1.Cl.Cl [Example 29, 4-[((1S,2R)-2-{[amino(imino)methyl]amino}cyclohexyl)amino]-6-methyl-N-neopentylquinazoline-2-carboxamide dihydrochloride] | 1.67
 |  | Cc1ccc2nc(C(=O)Nc3ccc(C)c(C)c3)nc(N[C@H]3CCCC[C@H]3NC(=N)N)c2c1.Cl.Cl [Example 52, 4-[((1S,2R)-2-{[amino(imino)methyl]amino}cyclohexyl)amino]-N-(3,4-dimethylphenyl)-6-methylquinazoline-2-carboxamide dihydrochloride] | 4.50
 |  | Cc1ccc2nc(C(=O)NC3CCCCCC3)nc(N[C@H]3CCCC[C@H]3NC(=N)N)c2c1.Cl.Cl [Example 364, 4-[((1S,2R)-2-{[amino(imino)methyl]amino}cyclohexyl)amino]-N-cycloheptyl-6-methylquinazoline-2-carboxamide dihydrochloride] | 5.17
 |  | Cc1ccc2nc(C(=O)NCCc3ccsc3)nc(N[C@H]3CCCC[C@H]3NC(=N)N)c2c1.Cl.Cl [Example 381, 4-[((1S,2R)-2-{[amino(imino)methyl]amino}cyclohexyl)amino]-6-methyl-N-[2-(3-thienyl)ethyl]quinazoline-2-carboxamide dihydrochloride] | 5.00
 |  | Cc1ccc2nc(C(=O)NCC(C)C)nc(N[C@H]3CCCC[C@H]3NC(=N)N)c2c1.Cl.Cl [Example 383, 4-[((1S,2R)-2-{[amino(imino)methyl]amino}cyclohexyl)amino]-N-isobutyl-6-methylquinazoline-2-carboxamide dihydrochloride] | 2.33
